Where “and” joins values, the source holds several entries; their conditions need not be identical. Equal values may be shown once. Read-outs that look alike come from different tables or passages of the source.
Tests used:
[1] = Plasma concentration of paclitaxel in A549 xenograft mice; format: in vivo; conditions: BALB/c, mouse, intraperitoneal, 10 mg/kg, plasma concentration of paclitaxel […] after administration, PTX 10 mg/kg I.P., PTX + WAB 10 + 50 mg/kg I.G., Day 34, mean
Description: Tumor-bearing mice were weighed using an electronic scale and tumor sizes were surveyed with vernier calipers, and these procedures were conducted twice a week. Tumor weight was calculated from the tumor sizes according to the reported formula [30]: tumor volume (mm^3) = (tumor length in mm) × (tumor width in mm)^2/2. One and a half hours after the last administration on Day 34, all mice were sacrificed after blood was collected from the orbital sockets using fine capillaries. […] The serum was separated and analyzed by method described previously [7].

[2] = in vitro; conditions: human, Caco-2
Description: (§2) The apical (AP) media volume was 500 μL and the basolateral (BL) volume was 1500 μL. […] Verapamil serves as a positive control for this experiment and was added to both compartments prior to initiation. At 30, 60, 90, and 120 min, 100 μL of media was removed from the receiver compartment followed by the addition of 100 μL of preheated buffer as replenishment.

[3] = Mortality, survival, side effect and body weight of A549 xenograft-bearing mice
Description: (§1) Tumor-bearing mice were weighed using an electronic scale and tumor sizes were surveyed with vernier calipers, and these procedures were conducted twice a week. Tumor weight was calculated from the tumor sizes according to the reported formula [30]: tumor volume (mm^3) = (tumor length in mm) × (tumor width in mm)^2/2. One and a half hours after the last administration on Day 34, all mice were sacrificed after blood was collected from the orbital sockets using fine capillaries. […] The serum was separated and analyzed by method described previously.

[4] = system: Caco-2 cells; assay: Caco-2 bidirectional transport of paclitaxel; conditions: paclitaxel 1 μg/mL alone or with verapamil 100 μM
Description: as §2

[5] = system: A549 cells; assay: MTT assay in A549; format: cell-based; conditions: Homo sapiens, 50 nM, 24 h, read-out: inhibition of the proliferation of A549 cells
Description: 100 μL A549 cells (2 × 10^5 cells/mL) were seeded onto a 96-well plate. […] The same volume of complete culture medium served as the negative control. Then, 20 μl MTT solution (5 mg/mL) was added to each well, and the plates were incubated for 4 h. The medium was replaced by 150 μl DMSO, which solubilized the MTT formazan salt. The absorbance of the solution was measured on a microplate reader (Vrioskan Flash, Thermo Scientific, USA) at 490 nm and the results were expressed as a percentage of the control cells.

[6] = target: T1, P-gp (Homo sapiens, UniProt P08183); assay: Permeation of PTX through MDCK–MDR1 cell monolayers; format: in vitro ADME; conditions: dog, PTX alone or with VRP 100 μM
T1 construct: expressed in transfected cells; host or cells: MDCK-MDR1 (Madin-Darby canine kidney cells transfected with human MDR1)
T1 sequence (P08183 whole entry): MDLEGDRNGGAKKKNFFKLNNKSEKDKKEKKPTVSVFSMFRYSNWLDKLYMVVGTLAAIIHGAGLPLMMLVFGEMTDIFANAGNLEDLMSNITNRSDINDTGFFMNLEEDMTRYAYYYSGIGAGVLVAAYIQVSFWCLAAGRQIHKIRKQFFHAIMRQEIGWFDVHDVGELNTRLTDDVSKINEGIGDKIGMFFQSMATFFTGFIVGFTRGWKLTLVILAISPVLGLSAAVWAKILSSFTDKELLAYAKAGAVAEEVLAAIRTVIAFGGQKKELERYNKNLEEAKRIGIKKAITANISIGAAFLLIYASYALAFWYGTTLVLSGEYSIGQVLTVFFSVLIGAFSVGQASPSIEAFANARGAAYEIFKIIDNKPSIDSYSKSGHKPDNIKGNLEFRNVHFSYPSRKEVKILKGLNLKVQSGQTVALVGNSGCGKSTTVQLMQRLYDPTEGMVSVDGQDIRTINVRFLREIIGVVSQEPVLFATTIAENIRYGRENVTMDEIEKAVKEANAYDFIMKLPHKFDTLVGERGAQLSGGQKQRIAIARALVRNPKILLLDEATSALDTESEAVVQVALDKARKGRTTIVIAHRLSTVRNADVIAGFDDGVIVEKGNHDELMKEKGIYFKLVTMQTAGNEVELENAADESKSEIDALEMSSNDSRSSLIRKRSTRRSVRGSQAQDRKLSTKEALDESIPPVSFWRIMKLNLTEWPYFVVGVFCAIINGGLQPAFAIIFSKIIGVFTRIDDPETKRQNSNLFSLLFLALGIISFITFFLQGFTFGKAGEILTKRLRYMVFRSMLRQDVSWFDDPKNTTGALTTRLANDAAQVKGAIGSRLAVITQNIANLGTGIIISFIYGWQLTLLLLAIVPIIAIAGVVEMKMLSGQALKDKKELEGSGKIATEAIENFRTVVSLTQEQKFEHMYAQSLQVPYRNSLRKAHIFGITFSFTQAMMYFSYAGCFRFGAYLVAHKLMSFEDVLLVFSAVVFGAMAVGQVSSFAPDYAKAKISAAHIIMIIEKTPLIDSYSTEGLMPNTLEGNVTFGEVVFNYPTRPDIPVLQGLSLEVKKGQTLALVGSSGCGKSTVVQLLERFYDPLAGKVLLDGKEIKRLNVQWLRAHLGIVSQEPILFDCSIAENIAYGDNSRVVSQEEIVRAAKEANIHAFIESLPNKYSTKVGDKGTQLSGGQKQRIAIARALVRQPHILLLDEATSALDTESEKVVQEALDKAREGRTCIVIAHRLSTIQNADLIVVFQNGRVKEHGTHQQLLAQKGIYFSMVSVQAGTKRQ
Description: To evaluate the inhibitory effect of flavonoids or lignoids on P-gp-induced reflux of PTX across the cultured cell monolayer, MDCK–MDR1cells were seeded on to Falcon 24-multiwell insert system at a density of 6 × 10^5 cells/mL. The detailed method is applied as previous research with some modification (such as time points of sampling including 0, 30, 60, 90, 120 min are selected, and C0 of PTX in the apical compartment is 1 μg/mL).
The apical (AP) media volume was 500 μL and the basolateral (BL) volume was 1500 μL.

[7] = system: A549 cells; assay: Flow cytometry with Annexin V/PI staining; format: cell-based, human; conditions: PTX 50 nM, 24 h
Description: Afterward, they were washed with PBS, counted, and adjusted to 1 × 10^6 cells/ml. Apoptosis of A549 cells was determined by flow cytometry (FC500; Beckman Coulter, Brea, CA, USA) using the Annexin V-fluorescein isothiocyanate (FITC)/propidium iodide (PI) kit (MULTISCIENCES (LIANKE) BIOTECH, CO., LTD, Hangzhou, China). Staining was performed in accordance with the method described in the manufacturer's instructions. The rate of apoptosis was analyzed using MCF software (Beckman Coulter, Brea, CA, USA).

[8] = system: BCL-2 family proteins' expressions in A549; assay: Western blotting of BCL-2 family proteins; format: cell-based, human; conditions: PTX 50 nM, 24 h
Description: Total cell extracts were lysed in lysis buffer (Ripa, Solarbio, China), and protein extract (60 μg) was added into each well of 10% gel and separated through gel electrophoresis. Gels were soaked in transfer buffer (30 mM glycine, 16 mM Tris-HCl, and 20% methanol) and proteins in the gels were then blotted to polyvinylidene difluoride (PVDF) membranes. Nonfat dry milk in PBST (137 mM NaCl, […], 100 mM Na2HPO4, 20 mM KH2PO4 0.05% tween 20, pH 7.4) was used for blocking nonspecific binding sites. The polyvinylidene difluoride membranes were then incubated with primary antibodies: anti-BCL-2 mAb (1 : 1000), anti-BAK mAB (1 : 2000), anti-MCL-1 pAb (1 : 3000), anti-pMCL-1 mAb (1 : 2000), anti-cyclinB1 mAb (1 : 1000), or anti-b-actin mAb (1 : 5000). Then, secondary antibodies (anti-mouse 1 : 5000, anti-rabbit–1:5000) were applied to the membranes. The ECL western blotting detection kit was used for detecting protein bands in the membranes. Protein bands were detected using the ECL Plus Kit (Huaan biotech, Hangzhou, China), imaged on Tanon 2000. Densitometry analysis was performed using ImageJ software to calculate the relative expression change after normalizing with β-actin.

[9] = system: A549 tumor; format: in vivo, BALB/c mice; parameters: tumor weight: unit not given beside the values
Description: as §1

[10] = PTX 10 mg/kg I.P., PTX + WAB 10 + 50 mg/kg I.G.
[11] = PTX 10 mg/kg I.P., PTX + WAB 10 + 50 mg/kg I.G., Day 34

CC(=O)O[C@H]1C(=O)[C@@]2(C)[C@H]([C@H](OC(=O)c3ccccc3)[C@]3(O)C[C@H](OC(=O)[C@H](O)[C@@H](NC(=O)c4ccccc4)c4ccccc4)C(C)=C1C3(C)C)[C@]1(OC(C)=O)CO[C@@H]1C[C@@H]2O [Paclitaxel]
concentration at […] [1]: 201 ng/mL | Papp A→B at 120 min, 1 μg/mL [2]: 0.252 ×10⁻⁶ cm/s | Papp B→A at 120 min, 1 μg/mL [2]: 75.3 ×10⁻⁶ cm/s | Survival rate [3, 10]: 66.7% | Mortality (dead mice) [3, 11]: 4 | mortality % ([3]; PTX group, PTX+WAB 10+50 mg/kg, Day 34): 33.33% | Papp AP–BL of paclitaxel [4]: 0.25 ± 0.43 ×10^−6 cm/s | Papp BL–AP of paclitaxel [4]: 75.26 ± 7.43 ×10^−6 cm/s | inhibition at 0.05 µM [5]: ~28% | Papp B→A at 120 min, 1 μg/mL [6]: 86.4 ± 14.1 ×10⁻⁶ cm/s | percentage of cells Annexin V positive [7]: approx. 16.3% | apoptosis ([7]; with or without HDS-2 80 μg/mL): 17.5% | percentage of cells PI positive (necrosis) ([7]; with or without HDS-2 80 μg/mL): approx. 22.8% | expressions of cyclinB1, BAK, BCL-2, MCL-1, and pMCL-1 [8]: significantly upregulated | tumor volume, group mean ([9]; Day 1, PTX 10 mg/kg I.P., PTX+WAB 10+50 mg/kg I.G.): 80.63 mm^3 | tumor volume, group mean ([9]; Day 4, PTX 10 mg/kg I.P., PTX+WAB 10+50 mg/kg I.G.): 88.36 mm^3 | tumor volume, group mean ([9]; Day 7, PTX 10 mg/kg I.P., PTX+WAB 10+50 mg/kg I.G.): 123.87 mm^3 | tumor volume, group mean ([9]; Day 10, PTX 10 mg/kg I.P., PTX+WAB 10+50 mg/kg I.G.): 140.25 mm^3 | tumor volume, group mean ([9]; Day 13, PTX 10 mg/kg I.P., PTX+WAB 10+50 mg/kg I.G.): 170.16 mm^3 | tumor volume, group mean ([9]; Day 16, PTX 10 mg/kg I.P., PTX+WAB 10+50 mg/kg I.G.): 131.58 mm^3 | tumor volume, group mean ([9]; Day 19, PTX 10 mg/kg I.P., PTX+WAB 10+50 mg/kg I.G.): 181.34 mm^3 | tumor volume, group mean ([9]; Day 22, PTX 10 mg/kg I.P., PTX+WAB 10+50 mg/kg I.G.): 174.31 mm^3 | tumor volume, group mean ([9]; Day 25, PTX 10 mg/kg I.P., PTX+WAB 10+50 mg/kg I.G.): 203.28 mm^3 | tumor volume, group mean ([9]; Day 28, PTX 10 mg/kg I.P., PTX+WAB 10+50 mg/kg I.G.): 256.78 mm^3 | tumor volume, group mean ([9]; Day 31, PTX 10 mg/kg I.P., PTX+WAB 10+50 mg/kg I.G.): 273.56 mm^3 | tumor volume, group mean ([9]; Day 34, PTX 10 mg/kg I.P., PTX+WAB 10+50 mg/kg I.G.): 263.74 mm^3 | activity against A549 tumor growth [9, 10]: weak inhibitory activity against A549 | Inhibition rate [9, 11]: 38.60 ± 64.87% | tumor weight ([9]; PTX 10 mg/kg I.P., PTX+WAB 10+50 mg/kg I.G., Day 34, individual animals, listed as PTX): 0.2469 and 0.1592 and 0.156 and 0.1923 and 0.1802 and 0.1183 and 0.1699 | Mean (growth factor) ([9]; PTX 10 mg/kg, PTX+WAB 10+50 mg/kg, from tumor size Day 34/Day 1): 13.43

— publication PMC9060980 (Evidence-based Complementary and Alternative Medicine : eCAM, 2022)
